Results taken from patent US10722514B2 (FLX Bio, Inc., priority 2017, dated 2020).

molecular target: T1, recombinant full-length USP7 (Homo sapiens, UniProt Q93009); experiment: USP7-mediated ubiquitin-rhodamine cleavage assay; assay type: biochemical; conditions: recombinant full-length USP7 62 pM; ubiquitin-rhodamine 100 nM; 30-minute incubation with compound, 1 hour reaction at room temperature; read-out: Potency: USP7 IC50
T1 construct: A 25 μl reaction volume containing recombinant full-length USP7 (62 pM)
In short: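 Enzyme 62 pM; HEPES pH 7.3/150 mM NaCl/1 mM TCEP/125 μg/ml BSA; 1% DMSO; 30 min cpd preinc RT; Ub-rhodamine 100 nM, 1 h RT, dark; acetic acid stop; fluorescence; IC50 4-param fit.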

T1 sequence (Q93009 whole entry): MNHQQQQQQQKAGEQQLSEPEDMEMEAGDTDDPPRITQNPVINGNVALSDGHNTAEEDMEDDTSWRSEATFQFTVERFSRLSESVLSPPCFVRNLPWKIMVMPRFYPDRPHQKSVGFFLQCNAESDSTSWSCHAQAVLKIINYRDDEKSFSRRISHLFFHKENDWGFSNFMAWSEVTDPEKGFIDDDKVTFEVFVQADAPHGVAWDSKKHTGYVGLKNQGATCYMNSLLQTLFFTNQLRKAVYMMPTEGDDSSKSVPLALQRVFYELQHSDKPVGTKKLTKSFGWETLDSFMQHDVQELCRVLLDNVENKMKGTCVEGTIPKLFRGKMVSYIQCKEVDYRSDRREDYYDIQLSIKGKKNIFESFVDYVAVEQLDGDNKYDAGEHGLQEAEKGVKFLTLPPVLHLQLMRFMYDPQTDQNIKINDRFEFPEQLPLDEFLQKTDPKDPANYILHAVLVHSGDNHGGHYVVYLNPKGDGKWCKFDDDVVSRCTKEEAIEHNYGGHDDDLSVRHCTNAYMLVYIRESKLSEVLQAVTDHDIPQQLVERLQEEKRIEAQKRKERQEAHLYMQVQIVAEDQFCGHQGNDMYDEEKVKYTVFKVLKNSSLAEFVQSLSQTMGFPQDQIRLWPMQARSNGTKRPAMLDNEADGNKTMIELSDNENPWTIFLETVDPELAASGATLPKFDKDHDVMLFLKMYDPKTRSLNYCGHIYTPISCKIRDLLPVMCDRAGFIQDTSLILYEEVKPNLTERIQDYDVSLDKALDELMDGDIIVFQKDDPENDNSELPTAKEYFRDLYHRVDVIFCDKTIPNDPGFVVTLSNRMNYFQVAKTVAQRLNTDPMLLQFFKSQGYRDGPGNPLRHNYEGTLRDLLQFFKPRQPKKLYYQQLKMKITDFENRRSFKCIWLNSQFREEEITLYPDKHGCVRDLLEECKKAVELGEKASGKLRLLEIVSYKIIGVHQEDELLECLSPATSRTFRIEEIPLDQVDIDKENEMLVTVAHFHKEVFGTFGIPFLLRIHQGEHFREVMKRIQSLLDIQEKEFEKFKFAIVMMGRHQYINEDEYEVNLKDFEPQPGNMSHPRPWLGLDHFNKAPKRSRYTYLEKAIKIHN

Compound	IC50
Cc1cc(C#N)cc(-c2ccnc3cc(CN4C(=O)C5C6CCC(C6)C5C4=O)sc23)c1O[C@@H]1CNC[C@@H]1F (stereo partly drawn) [Example 112, 3-(2-((1,3-Dioxooctahydro-2H-4,7-methanoisoindol-2-yl)methyl)thieno[3,2-b]pyridin-7-yl)-4-(((3R,4S)-4-fluoropyrrolidin-3-yl)oxy)-5-methylbenzonitrile]	< 1 µM
Cc1cc(Cl)cc(-c2ccnc3cc(CN4C(=O)C5CC5C4=O)sc23)c1O[C@@H]1CN(C)C[C@@H]1F (stereo partly drawn) [Example 314, 3-[[7-[5-chloro-2-[(3R,4S)-4-fluoro-1-methyl-pyrrolidin-3-yl]oxy-3-methyl-phenyl]thieno[3,2-b]pyridin-2-yl]methyl]-3-azabicyclo[3.1.0]hexane-2,4-dione]	< 1 µM
Cc1cc(Cl)cc(-c2ccnc3cc([C@H](C)N4C(=O)C5C(C4=O)C5(C)C)sc23)c1OC1CCC(C)NC1 (stereo partly drawn) [Example 396, 3-[(1S)-1-[7-[5-chloro-3-methyl-2-[(6-methyl-3-piperidyl)oxy]phenyl]thieno[3,2-b]pyridin-2-yl]ethyl]-6,6-dimethyl-3-azabicyclo[3.1.0]hexane-2,4-dione; 2,2,2-trifluoroacetic acid]	< 1 µM
CCC(O)c1cc2nccc(-c3cccc(C)c3OC3CCNCC3)c2s1 (stereo not drawn) [Example 172, 1-(7-(3-Methyl-2-(piperidin-4-yloxy)phenyl)thieno[3,2-b]pyridin-2-yl)propan-1-ol]	10 to 30 µM
CO[C@H]1CNC[C@H]1Oc1c(C)cc(Cl)cc1-c1ccnc2cc(CN3C(=O)CCC3=O)sc12 [Example 106, 1-((7-(5-Chloro-2-(((3R,4S)-4-methoxypyrrolidin-3-yl)oxy)-3-methylphenyl)thieno[3,2-b]pyridin-2-yl)methyl)pyrrolidine-2,5-dione]	< 1 µM
Cc1cc(Cl)cc(-c2ccnc3cc(CN4C(=O)C5C(C4=O)C5(C)C)sc23)c1O[C@@H]1C[C@H]2CN[C@@H]1C2 (stereo partly drawn) [Example 331, 3-[[7-[2-[[(1S,4R,5R)-3-azabicyclo[2.2.1]heptan-5-yl]oxy]-5-chloro-3-methyl-phenyl]thieno[3,2-b]pyridin-2-yl]methyl]-6,6-dimethyl-3-azabicyclo[3.1.0]hexane-2,4-dione]	< 1 µM
Cc1cc(Cl)cc(-c2ccnc3cc(CN4C(=O)CCC4C(F)(F)F)sc23)c1O[C@@H]1CNC[C@@H]1F (stereo partly drawn) [Example 147, 1-((7-(5-Chloro-2-(((3R,4S)-4-fluoropyrrolidin-3-yl)oxy)-3-methylphenyl)thieno[3,2-b]pyridin-2-yl)methyl)-5-(trifluoromethyl)pyrrolidin-2-one]	< 1 µM
Cc1cc(Cl)cc(-c2ncnc3cc(CN4C(=O)CSC4=O)sc23)c1O[C@@H]1CNC[C@@H]1F [Example 129, 3-((4-(5-Chloro-2-(((3R,4S)-4-fluoropyrrolidin-3-yl)oxy)-3-methylphenyl)thieno[3,2-d]pyrimidin-6-yl)methyl)thiazolidine-2,4-dione]	< 1 µM
CO[C@@H]1CNC[C@@H]1Oc1c(C)cc(Cl)cc1-c1ccnc2cc(CO)sc12 [Example 66, (7-(5-Chloro-2-(((3S,4R)-4-methoxypyrrolidin-3-yl)oxy)-3-methylphenyl)thieno[3,2-b]pyridin-2-yl)methanol]	10 to 30 µM
Cc1cc(Cl)cc(-c2ncnc3cc(CN4C(=O)COC4=O)sc23)c1OC1CCNCC1 [Example 225, 3-((4-(5-Chloro-3-methyl-2-(piperidin-4-yloxy)phenyl)thieno[3,2-d]pyrimidin-6-yl)methyl)oxazolidine-2,4-dione]	1 to 10 µM
Cc1cc(C#N)cc(-c2ccnc3ccsc23)c1OCC1(C#N)CNC1 [Example 9, 3-((4-Cyano-2-methyl-6-(thieno[3,2-b]pyridin-7-yl)phenoxy)methyl)azetidine-3-carbonitrile]	< 1 µM
Cc1cc(Cl)cc(-c2ccnc3cc(CN4C(=O)C5C(C4=O)C5(C)C)sc23)c1O[C@@H]1CNCC[C@H]1C (stereo partly drawn) [Example 341, 3-[[7-[5-chloro-3-methyl-2-[[(3S,4R)-4-methyl-3-piperidyl]oxy]phenyl]thieno[3,2-b]pyridin-2-yl]methyl]-6,6-dimethyl-3-azabicyclo[3.1.0]hexane-2,4-dione]	< 1 µM
Cc1cc(Cl)cc(-c2ccnc3cc(CN4C(=O)CCC4=O)sc23)c1O[C@H]1CCNC[C@@H]1C [Example 223, 1-((7-(5-Chloro-3-methyl-2-(((3S,4S)-3-methylpiperidin-4-yl)oxy)phenyl)thieno[3,2-b]pyridin-2-yl)methyl)pyrrolidine-2,5-dione]	< 1 µM
Cc1cc(Cl)cc(-c2ccnc3cc(CO)sc23)c1O[C@@H]1CN[C@H](CO)C1 [Example 77, (7-(5-Chloro-2-(((3S,5S)-5-(hydroxymethyl)pyrrolidin-3-yl)oxy)-3-methylphenyl)thieno[3,2-b]pyridin-2-yl)methanol]	10 to 30 µM
Cc1cc(Cl)cc(-c2ccnc3cc(Cn4c(=O)ccn(C5CC5)c4=O)sc23)c1O[C@H]1CCCNC1 [Example 285, 3-[[7-[5-chloro-3-methyl-2-[[(3S)-3-piperidyl]oxy]phenyl]thieno[3,2-b]pyridin-2-yl]methyl]-1-cyclopropyl-pyrimidine-2,4-dione; 2,2,2-trifluoroacetic acid]	< 1 µM

same assay, conditions: recombinant full-length USP7 62 pM; ubiquitin-rhodamine 100 nM; 30-minute incubation, 1 hour reaction at room temperature; read-out: Potency (USP7 IC50)

Compound	IC50
Cc1cc(Cl)cc(-c2ccnc3cc(Cn4c(=O)ccn(CC(F)(F)F)c4=O)sc23)c1OC1CC2(COCCN2)C1 (stereo not drawn) [Example 697, 3-[[7-[5-chloro-3-methyl-2-(8-oxa-5-azaspiro[3.5]nonan-2-yloxy)phenyl]thieno[3,2-b]pyridin-2-yl]methyl]-1-(2,2,2-trifluoroethyl)pyrimidine-2,4-dione]	< 1 µM

same assay, conditions: recombinant full-length USP7 62 pM; ubiquitin-rhodamine 100 nM; 30-minute pre-incubation, 1 hour reaction at room temperature; read-out: Potency (USP7 IC50)

Compound	IC50
Cc1cc(Cl)cc(-c2ccnc3cc(Cn4c(=O)[nH]cc(C(F)(F)F)c4=O)sc23)c1O[C@H]1CCCNC1 [Example 571, 3-[[7-[5-chloro-3-methyl-2-[[(3S)-3-piperidyl]oxy]phenyl]thieno[3,2-b]pyridin-2-yl]methyl]-5-(trifluoromethyl)-1H-pyrimidine-2,4-dione]	< 1 µM
Cc1cc(Cl)cc(-c2ccnc3cc(Cn4c(=O)ccn(C)c4=O)sc23)c1O[C@H]1CNCC[C@H]1C [Example 588, 3-[[7-[5-chloro-3-methyl-2-[[(3R,4R)-4-methyl-3-piperidyl]oxy]phenyl]thieno[3,2-b]pyridin-2-yl]methyl]-1-methyl-pyrimidine-2,4-dione; 2,2,2-trifluoroacetic acid]	< 1 µM
CC(=O)N1CC[C@@H](Oc2c(C)cc(Cl)cc2-c2ccnc3cc(Cn4c(=O)ccn(CC(F)(F)F)c4=O)sc23)[C@@H](C)C1 [Example 607, 3-[[7-[2-[[(3S,4R)-1-acetyl-3-methyl-4-piperidyl]oxy]-5-chloro-3-methyl-phenyl]thineo[3,2-b]pyridin-2-yl]methyl]-1-(2,2,2-trifluoroethyl)pyrimidine-2,4-dione]	< 1 µM
Cc1cc(Cl)cc(-c2ccnc3cc(Cn4c(=O)ccn(CC(F)(F)F)c4=O)sc23)c1O[C@H]1CCNC[C@@H]1C [Example 629, 3-[[7-[5-chloro-3-methyl-2-[[(3S,4S)-3-methyl-4-piperidyl]oxy]phenyl]thieno[3,2-b]pyridin-2-yl]methyl]-1-(2,2,2-trifluoroethyl)pyrimidine-2,4-dione]	< 1 µM
CCN1CCC[C@H](Oc2c(C)cc(Cl)cc2-c2ccnc3cc(Cn4c(=O)ccn(C)c4=O)sc23)CC1 [Example 493, 3-[[7-[5-chloro-2-[(4S)-1-ethylazepan-4-yl]oxy-3-methyl-phenyl]thieno[3,2-b]pyridin-2-yl]methyl]-1-methyl-pyrimidine-2,4-dione]	< 1 µM
Cc1cc(Cl)cc(-c2ccnc(CCCN3C(=O)CCC3=O)c2)c1OC1CNC[C@@H]1F (stereo partly drawn) [Example 408, 1-[3-[4-[5-chloro-2-[(4S)-4-fluoropyrrolidin-3-yl]oxy-3-methyl-phenyl]-2-pyridyl]propyl]pyrrolidine-2,5-dione; 2,2,2-trifluoroacetic acid]	1 to 10 µM
Cc1cc(Cl)cc(-c2ncnc3cc(Cn4c(=O)ccn(C(C)C)c4=O)sc23)c1O[C@@H]1CCNC[C@@H]1C [Example 508, 3-[[4-[5-chloro-3-methyl-2-[[(3S,4R)-3-methyl-4-piperidyl]oxy]phenyl]thieno[3,2-d]pyrimidin-6-yl]methyl]-1-isopropyl-pyrimidine-2,4-dione]	< 1 µM
Cc1cc(Cl)cc(-c2ncnc3cc(Cn4c(=O)ccn(CC(F)(F)F)c4=O)sc23)c1O[C@H]1CCCN(C)C1 [Example 521, 3-[[4-[5-chloro-3-methyl-2-[[(3S)-1-methyl-3-piperidyl]oxy]phenyl]thieno[3,2-d]pyrimidin-6-yl]methyl]-1-(2,2,2-trifluoroethyl)pyrimidine-2,4-dione]	< 1 µM
Cc1cc(Cl)cc(-c2ccnc3cc(Cn4c(=O)ccn(CC(F)(F)F)c4=O)sc23)c1OCC1CNCCO1 (stereo not drawn) [Example 651, 3-[[7-[5-chloro-3-methyl-2-(morpholin-2-ylmethoxy)phenyl]thieno[3,2-b]pyridin-2-yl]methyl]-1-(2,2,2-trifluoroethyl)pyrimidine-2,4-dione; 2,2,2-trifluoroacetic acid]	< 1 µM
Cc1cc(Cl)cc(-c2ccnc3cc(CN4C(=O)C[C@@H](F)C4=O)sc23)c1OC1CCNCC1 [Example 414, (3R)-1-[[7-[5-chloro-3-methyl-2-(4-piperidyloxy)phenyl]thieno[3,2-b]pyridin-2-yl]methyl]-3-fluoro-pyrrolidine-2,5-dione]	< 1 µM
CCn1ccc(=O)n(Cc2cc3ncnc(-c4cc(Cl)cc(C)c4O[C@H]4CCCNC4)c3s2)c1=O [Example 440, 3-[[4-[5-chloro-3-methyl-2-[[(3S)-3-piperidyl]oxy]phenyl]thieno[3,2-d]pyrimidin-6-yl]methyl]-1-ethyl-pyrimidine-2,4-dione; 2,2,2-trifluoroacetic acid]	< 1 µM
